Measurements published in US20150141435A1, “2-PYRIDONE ANTIMICROBIAL COMPOSITIONS” (Emergent BioSolutions, priority 2010, published 2015).
Structures can show the parent of a compound that is named as a salt. Where two headings read alike, the source gives them in different places.

Legend:
Type in all cases: cell-based
[1] = test system: S. maltophilia ATCC 17677; assay: MIC, CLSI broth microdilution (Table 2); settings: Stenotrophomonas maltophilia
[2] = test system: S. aureus BAA-1720 (MRSA, FQ-R); assay: MIC, CLSI broth microdilution (Table 1); settings: Staphylococcus aureus, read-out: MIC S. aureus BAA-1720 (MRSA, FQ-R)
S. aureus ATCC 25923 = assay: MIC, CLSI broth microdilution (Table 1); settings: Staphylococcus aureus
E. faecium ATCC 19434 = assay: MIC, CLSI broth microdilution (Table 1); settings: Enterococcus faecium
K. pneumoniae ATCC 33495 = assay: MIC, CLSI broth microdilution (Table 2); settings: Klebsiella pneumoniae
H. influenzae ATCC 49247 = assay: MIC, CLSI broth microdilution (Table 2); settings: Haemophilus influenzae
E. coli ATCC 25922 = assay: MIC, CLSI broth microdilution (Table 2); settings: Escherichia coli
[3] = test system: S. aureus ATCC 43300 (MRSA, FQ-S); assay: MIC, CLSI broth microdilution (Table 1); settings: Staphylococcus aureus, read-out: MIC S. aureus ATCC 43300 (MRSA, FQ-S)
A. baumannii ATCC 19606 = assay: MIC, CLSI broth microdilution (Table 2); settings: Acinetobacter baumannii
P. aeruginosa ATCC 27853 = assay: MIC, CLSI broth microdilution (Table 2); settings: Pseudomonas aeruginosa
S. pneumonia ATCC 49619 = assay: MIC, CLSI broth microdilution (Table 1); settings: Streptococcus pneumoniae
E. faecalis ATCC 29212 = assay: MIC, CLSI broth microdilution (Table 1); settings: Enterococcus faecalis
[4] = ATCC17677, Gram negative, MHB, 37° C., 16-20 hours, read-out: MIC S. maltophilia ATCC 17677
[5] = Gram positive, MHB, 37° C., 16-20 hours
[6] = ATCC25923, Gram positive, MHB, 37° C., 16-20 hours, read-out: MIC S. aureus ATCC 25923
[7] = ATCC19434, Gram positive, MHB, 37° C., 16-20 hours, read-out: MIC E. faecium ATCC 19434
[8] = ATCC33495, Gram negative, MHB, 37° C., 16-20 hours, read-out: MIC K. pneumoniae ATCC 33495
[9] = ATCC49247, Gram negative, MHB, 37° C., 16-20 hours, read-out: MIC H. influenzae ATCC 49247
[10] = ATCC25922, Gram negative, MHB, 37° C., 16-20 hours, read-out: MIC E. coli ATCC 25922
[11] = ATCC19606, Gram negative, MHB, 37° C., 16-20 hours, read-out: MIC A. baumannii B. ATCC 19606
[12] = ATCC27853, Gram negative, MHB, 37° C., 16-20 hours, read-out: MIC P. aeruginosa ATCC 27853
[13] = ATCC49619, Gram positive, MHB, 37° C., 16-20 hours, read-out: MIC S. pneumonia ATCC 49619
[14] = ATCC29212, Gram positive, MHB, 37° C., 16-20 hours, read-out: MIC E. faecalis ATCC 29212
[15] = ATCC17677, read-out: MIC S. maltophilia ATCC 17677
[16] = ATCC25923, read-out: MIC S. aureus ATCC 25923
[17] = ATCC19434, read-out: MIC E. faecium ATCC 19434
[18] = ATCC33495, read-out: MIC K. pneumoniae ATCC 33495
[19] = ATCC49247, read-out: MIC H. influenzae ATCC 49247
[20] = ATCC25922, read-out: MIC E. coli ATCC 25922
[21] = ATCC19606, read-out: MIC A. baumannii B. ATCC 19606
[22] = ATCC27853, read-out: MIC P. aeruginosa ATCC 27853
[23] = ATCC49619, read-out: MIC S. pneumonia ATCC 49619
[24] = ATCC29212, read-out: MIC E. faecalis ATCC 29212

Compound	MIC [1, 4] [µg/mL]	MIC [2, 5] [µg/mL]	MIC (S. aureus ATCC 25923; [6]) [µg/mL]	MIC (E. faecium ATCC 19434; [7]) [µg/mL]	MIC (K. pneumoniae ATCC 33495; [8]) [µg/mL]	MIC (H. influenzae ATCC 49247; [9]) [ng/mL]	MIC (E. coli ATCC 25922; [10]) [µg/mL]	MIC [3, 5] [µg/mL]	MIC (A. baumannii ATCC 19606; [11]) [µg/mL]	MIC (P. aeruginosa ATCC 27853; [12]) [µg/mL]	MIC (S. pneumonia ATCC 49619; [13]) [µg/mL]	MIC (E. faecalis ATCC 29212; [14]) [µg/mL]	further results
Cc1c(N2CC[C@H](N)C2)ccn2c(=O)c(C(=O)O)cc(C3CC3)c12 [Example 27 K salt, 8-[(3S)-3-aminopyrrolidin-1-yl]-1-cyclopropyl-9-methyl-4-oxo-quinolizine-3-carboxylic acid]	2	8	1	> 8	0.25	125	0.064 to 0.125	0.5	2	2	2	4	
Cc1c(-c2cc[nH]c2)ccn2c(=O)c(C(=O)O)cc(C3CC3)c12 [Example 43 K salt, 1-cyclopropyl-9-methyl-4-oxo-8-(1H-pyrrol-3-yl)-4H-quinolizine-3-carboxylic acid]	0.25	2	0.016 to 0.032	4	0.125	8	0.064 to 0.125	0.032	0.25	4	0.5	0.125	
Cc1c(-c2ccc(N)c(Cl)c2)ccn2c(=O)c(C(=O)O)cc(C3CC3)c12 [Example 11 K salt, 8-(4-amino-3-chloro-phenyl)-1-cyclopropyl-9-methyl-4-oxo-4H-quinolizine-3-carboxylic acid]	0.125	0.125	≤ 0.004	0.25	0.125	≤ 4	0.064	≤ 0.004	0.064	2	0.032	0.016	
Cc1c(-c2ccc(NS(C)(=O)=O)cc2)ccn2c(=O)c(C(=O)O)cc(C3CC3)c12 [Example 14 K salt, 1-cyclopropyl-9-methyl-8-(4-(methylsulfonamido)-phenyl)-4-oxo-4H-quinolizine-3-carboxylic acid]	1	0.5	0.016	8	1	16	0.25	0.016	0.5 to 1	> 8	0.125	0.064	
CC(=O)Nc1ccc(-c2ccn3c(=O)c(C(=O)O)cc(C4CC4)c3c2C)cc1 [Example 13 K salt, 8-(4-acetamido-phenyl)-1-cyclopropyl-9-methyl-4-oxo-4H-quinolizine-3-carboxylic acid]	0.5	0.25	0.008 to 0.016	0.5	0.5	16	0.125	0.008	0.5	8	0.032	0.016	
Cc1c(-c2ccc(C(=O)O)cc2)c(F)cn2c(=O)c(C(=O)O)cc(C3CC3)c12 [Example 41 K salt, 8-(4-carboxy-phenyl)-1-cyclopropyl-7-fluoro-9-methyl-4-oxo-4H-quinolizine-3-carboxylic acid]	> 8	> 8	2	> 8	> 8	32	> 8	0.25	> 8	> 8	0.5 to 1	0.25	
Cc1cc(-c2ccn3c(=O)c(C(=O)O)cc(C4CC4)c3c2C)ccc1N [Example 19 K salt, 8-(4-amino-3-methyl-phenyl)-1-cyclopropyl-9-methyl-4-oxo-4H-quinolizine-3-carboxylic acid]	0.25	0.25	0.016	1	0.25	8	0.064 to 0.125	0.016	0.125 to 0.25	2	0.064 to 0.125	0.032	
Cc1c(-c2cccc(F)c2)ccn2c(=O)c(C(=O)O)cc(C3CC3)c12 [Example 10 K salt, 1-cyclopropyl-8-(3-fluoro-phenyl)-9-methyl-4-oxo-4H-quinolizine-3-carboxylic acid]	0.25 to 0.5	0.5	0.008	0.5	0.25	8	0.125	0.008	0.25	2	0.125	0.032	
Cc1c(N2CC[C@H](N)C2)c(F)cn2c(=O)c(C(=O)O)cc(C3CC3)c12 [Example 26 K salt, 8-[(3S)-3-aminopyrrolidin-1-yl]-1-cyclopropyl-7-fluoro-9-methyl-4-oxo-quinolizine-3-carboxylic acid]	0.064	1	0.032	1	0.016	≤ 4	≤ 0.004	0.032	0.064	0.125	0.064	0.125	
Cc1c(-c2cc(F)c(N)c(F)c2)ccn2c(=O)c(C(=O)O)cc(C3CC3)c12 [Example 39 K salt, 8-(4-amino-3,5-difluoro-phenyl)-1-cyclopropyl-9-methyl-4-oxo-4H-quinolizine-3-carboxylic acid]													MIC [1, 15]: 0.064 µg/mL; MIC [2]: 0.125 µg/mL; MIC (S. aureus ATCC 25923; [16]): ≤ 0.004 µg/mL; MIC (E. faecium ATCC 19434; [17]): 0.25 µg/mL; MIC (K. pneumoniae ATCC 33495; [18]): 0.125 µg/mL; MIC (H. influenzae ATCC 49247; [19]): ≤ 4 ng/mL; MIC (E. coli ATCC 25922; [20]): 0.064 µg/mL; MIC [3]: ≤ 0.004 µg/mL; MIC (A. baumannii ATCC 19606; [21]): 0.064 µg/mL; MIC (P. aeruginosa ATCC 27853; [22]): 2 µg/mL; MIC (S. pneumonia ATCC 49619; [23]): 0.032 µg/mL; MIC (E. faecalis ATCC 29212; [24]): 0.016 µg/mL
Cc1c(-c2ccc(NC(N)=O)cc2)ccn2c(=O)c(C(=O)O)cc(C3CC3)c12 [Example 24 K salt, 1-cyclopropyl-9-methyl-4-oxo-8-(4-ureido-phenyl)-4H-quinolizine-3-carboxylic acid]	> 8	> 8	0.032 to 0.064	0.5	0.5	16	0.125 to 0.25	0.032	4	8	0.032	0.032	
Cc1c(-c2ccc(N)cc2)c(F)cn2c(=O)c(C(=O)O)cc(C3CC3)c12 [Example 5 K salt, 8-(4-amino-phenyl)-1-cyclopropyl-7-fluoro-9-methyl-4-oxo-4H-quinolizine-3-carboxylic acid]													MIC [1, 15]: 0.125 µg/mL; MIC (S. aureus ATCC 25923; [16]): 0.008 µg/mL; MIC (E. faecium ATCC 19434; [17]): 0.5 µg/mL; MIC (K. pneumoniae ATCC 33495; [18]): 0.125 to 0.25 µg/mL; MIC (H. influenzae ATCC 49247; [19]): ≤ 4 ng/mL; MIC (E. coli ATCC 25922; [20]): 0.064 µg/mL; MIC [3]: 0.008 µg/mL; MIC (A. baumannii ATCC 19606; [21]): 0.064 µg/mL; MIC (P. aeruginosa ATCC 27853; [22]): 2 µg/mL; MIC (S. pneumonia ATCC 49619; [23]): 0.032 µg/mL; MIC (E. faecalis ATCC 29212; [24]): 0.016 to 0.032 µg/mL
Cc1c(-c2ccc(C(N)=O)cc2)c(F)cn2c(=O)c(C(=O)O)cc(C3CC3)c12 [Example 6 K salt, 8-(4-carbamoyl-phenyl)-1-cyclopropyl-7-fluoro-9-methyl-4-oxo-4H-quinolizine-3-carboxylic acid]													MIC [1, 15]: 0.5 µg/mL; MIC (S. aureus ATCC 25923; [16]): 0.008 to 0.016 µg/mL; MIC (K. pneumoniae ATCC 33495; [18]): 0.5 µg/mL; MIC (H. influenzae ATCC 49247; [19]): ≤ 4 ng/mL; MIC (E. coli ATCC 25922; [20]): 0.125 µg/mL; MIC [3]: 0.008 µg/mL; MIC (A. baumannii ATCC 19606; [21]): 0.5 µg/mL; MIC (S. pneumonia ATCC 49619; [23]): 0.032 µg/mL; MIC (E. faecalis ATCC 29212; [24]): 0.016 µg/mL
